The test system of this test is S. cerevisiae SKN7-toxicity growth rescue, plate reader. Briefly: SKN7 mediated toxicity in Saccharomyces cerevisiae, growth rescue counterscreen, dose confirmation (AID 624258).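 Also: growth read after three days of incubation at 30 °C.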 For orientation: The purpose of a counterscreen is to sort out artefacts and off-target activity.

Active and inactive are the calls of the source. No rule for the calls is given here. A value given as a limit tells only on which side of the number the result lay.

On to `O=S(=O)(CCSc1nc2ccccc2o1)c1nc2ccccc2s1`, for which the AC40 was 3.62 µM.

Turning to `Cc1[nH]n(-c2ccccc2)c(=O)c1/C=N/Nc1nncc(-c2ccccc2)n1`, the AC40 is 1.11 µM.

In the case of `Cc1nnc(N/N=C/c2cccc(OCc3ccc(Cl)c(Cl)c3)c2)n1N`, the AC40 is 3.28 µM.

As to `CCOc1ccc(/C=C2/SC(=O)NC2=S)cc1`, the AC40 was 1.24 µM.

Consider `COC(=O)c1ccc(SC2CCCCC2)c([N+](=O)[O-])c1`, for which the AC40 was 1.47 µM.

As to `CCC(=O)NC(c1cc(Cl)c2cccnc2c1O)C(C)C` (stereo not given), the AC40 is 3.15 µM.

Regarding `Cc1ccc(S(=O)(=O)N2CCOC23CCN(C(=O)c2cc(Cl)ccc2Cl)CC3)cc1`, the AC40 is 7.25 µM.

For `COc1ccc2c(c1)S/C(=C\C(=O)c1ccncc1)N2C`, the AC40 is 1.76 µM.

Take `O=C(COC(=O)c1ccc([N+](=O)[O-])o1)NC1CCCc2ccccc21` (stereo not given): the AC40 is 2.34 µM.

With `CNC(=S)Nc1ccc(C23CC4CC(CC(C4)C2)C3)cc1`, the AC40 was 2.47 µM.

As to `Cc1ccc(-c2nc3ccc(Cl)cc3c(=O)n2O)cc1`, the AC40 was 0.914 µM.

In the case of `N/C(Cc1ccc(Cl)cc1Cl)=N\OC(=O)c1ccc(Br)o1`, the AC40 was 0.746 µM.

Regarding `O=C(O)c1ccccc1NS(=O)(=O)c1cccc(-n2sc3ccccc3c2=O)c1`, the AC40 is 4.77 µM.

As for `COc1cccc2c1C(=O)c1c(O)c3c(c(O)c1C2=O)C[C@@](O)(C(=O)CO)C[C@@H]3O[C@H]1C[C@H](N)[C@H](O)[C@H](C)O1`, the AC40 is 6.21 µM.

On to `COc1ccc(NC(=O)/C(Cl)=C(/Cl)S(=O)(=O)Cc2ccc(C)cc2)cn1`, for which the AC40 is 1.24 µM.

As for `N#CC1=C(N)NC(=S)C(C(N)=O)C1c1ccc(Cl)cc1Cl` (stereo not given), the AC40 was 10.5 µM.

As to `CCOc1ccc(-n2c(O)c(/C=N/NC(=O)C3COc4ccccc4O3)c3ccccc3c2=O)cc1` (stereo not given), the AC40 was 2.18 µM.

Turning to `COc1ccc(OC)c2c1C(=O)C(Cl)=C(Cl)C2=O`, the AC40 is 0.66 µM.

For the compound `COc1ccc(-c2sc3ccccc3c2C#Cc2cncn2C)cc1`, the AC40 is 1.24 µM.

On to `Cc1ccccc1OCC(O)Cn1c2ccccc2c2ccccc21` (stereo not given), for which the AC40 was 3.61 µM.

On to `O=Nc1c(O)n(Cc2ccc(Cl)c(Cl)c2)c2ccccc12`, for which the AC40 was 8.74 µM.

Regarding `O=[N+]([O-])c1cccc(-c2cc(-c3cc(Br)ccc3O)[nH]n2)c1`, the AC40 was 8.39 µM.

As for `Cn1cnc([N+](=O)[O-])c1S(=O)(=O)Oc1ccc(Cl)cc1`, the AC40 was 1.31 µM.

As to `COc1ccccc1C1CCN(c2cc(O)ccc2[N+](=O)[O-])CC1`, the AC40 was 2.83 µM.

With `O=C(/C=C/c1ccccc1)c1cc(Br)ccc(=O)c1O`, the AC40 is 2.08 µM.

As to `N/C(Cc1ccc(Cl)cc1Cl)=N\OC(=O)c1ccccc1F`, the AC40 is 0.718 µM.

In the case of `Cc1nn(-c2nnc(NCc3ccccc3)nn2)c(C)c1Br`, the AC40 is 6.94 µM.

For `CC(=O)Nc1ccc2c(c1)Cc1cc(N3C(=O)C=CC3=O)ccc1-2`, the AC40 was 0.236 µM.

For the compound `O=c1c2c(-c3ccc(Cl)cc3)csc2ncn1/N=C/c1cccc([N+](=O)[O-])c1O`, the AC40 is 1.23 µM.

Take `O=C(CSc1nc2ccccc2s1)N/N=C/c1cc([N+](=O)[O-])ccc1O`: the AC40 is 3.97 µM.

As for `CCOC(=O)/C(=C/c1ccc(OC(=O)c2ccccc2)cc1)C(C)=O`, the AC40 was 1.83 µM.

Turning to `C=CCN(CC=C)C(=S)NC(=O)c1ccc(OC)c(Br)c1`, the AC40 is 0.652 µM.

`Cc1ccc(Sc2ccc([N+](=O)[O-])cc2[N+](=O)[O-])nc1`: the AC40 is 10.1 µM.

Turning to `Cc1ccc(NC2=CC(=O)C(=O)c3ccccc32)c(C)c1`, the AC40 is 18.7 µM.

For `O=C(CSc1ccc(-c2ccccn2)nn1)N1CCc2ccccc21`, the AC40 is 10.2 µM.

For the compound `COc1ccc(C(=O)NC(=S)NNC(=O)CCc2ccccc2)cc1`, the AC40 is 1.42 µM.

In the case of `O=C(N/N=C(\c1ccccc1)c1cccnc1)c1cccc(F)c1`, the AC40 is 1.12 µM.

For the compound `Cc1ccc(C)c(NS(=O)(=O)c2cc(C(=O)N3CCc4ccccc4C3)ccc2Cl)c1`, the AC40 was 6.58 µM.

Consider `CCS(=O)(=O)c1ccc(N=Nc2ccc(O)c3ncccc23)c(OC)c1`, for which the AC40 was 3.56 µM.

Regarding `COc1cccc(/C=N/Nc2ncc(C(F)(F)F)cc2Cl)c1O`, the AC40 was 1.11 µM.

On to `CCCOc1ccc(C(=O)NNC(=S)NC(=O)CC)cc1`, for which the AC40 is 1.48 µM.

Take `Cc1ccnc(N2C(=O)c3cccc4c([N+](=O)[O-])ccc(c34)C2=O)c1`: the AC40 was 0.166 µM.

As to `N#C/C(=C\c1cccnc1)c1ccc([N+](=O)[O-])cc1`, the AC40 is 16.7 µM.

As to `Cc1ccc(CNC(=O)CSc2ccc(-c3ccccn3)nn2)cc1`, the AC40 was 2.75 µM.

As for `CSC1=NC(=O)/C(=C/c2ccc(SC)cc2)S1`, the AC40 was 2.61 µM.

`O=C1c2ccccc2C2=Nc3ccccc3SC(c3cccc(F)c3)C12` (stereo not given): the AC40 is 1.24 µM.

Consider `Cc1cc(C)c(C(N)=O)c(Nc2cccc3ccccc23)n1`, for which the AC40 was > 19.5 µM (inactive).

As to `Oc1ccccc1N=Cc1ccc[nH]1`, the AC40 is > 0.75 µM (inactive).

As for `O=C(NCC1CC1(Cl)Cl)Nc1ccc(Cl)c(Cl)c1` (stereo not given), the AC40 was > 6.8 µM (inactive).

For `O=c1[nH][nH]cc1C=Nc1ccccc1O`, the AC40 is 2.18 µM.

For `O=[N+]([O-])c1ccc(N=Nc2ncc[nH]2)cc1`, the AC40 is 6.08 µM.

For `CSc1cccc(NC(=O)/C=C/c2cccc(Cl)c2)c1`, the AC40 is 4.52 µM.

As to `COc1ccc(S(=O)(=O)N(C(=O)c2ccncc2)c2ccc(OC(=O)c3ccncc3)cc2)cc1`, the AC40 is 1.88 µM.

As for `COc1ccc(C(=O)c2c(C(F)(F)F)oc3c2C(=O)c2ccccc2C3=O)cc1OC`, the AC40 is 14.3 µM.

`O=C(CSc1ccc(-c2ccccn2)nn1)N1CCCc2ccccc21`: the AC40 was 4.75 µM.

In the case of `c1ccc(Nc2cccc(Nc3ccccc3)c2)cc1`, the AC40 was 0.766 µM.

For the compound `O=C(Oc1ccc(N(C(=O)c2ccncc2)S(=O)(=O)c2ccc(Cl)cc2)cc1)c1ccncc1`, the AC40 was 0.978 µM.

Turning to `Nc1c(Cl)ncnc1N/N=C/c1ccc2ccccc2n1`, the AC40 is 4.34 µM.

`COc1ccc(N(C(=O)c2ccncc2)S(=O)(=O)c2ccc(F)cc2)cc1`: the AC40 is 3.67 µM.

For the compound `Cc1ccccc1NC(=O)CSc1ccc(-c2ccccn2)nn1`, the AC40 was 7.17 µM.

Take `CC(C)c1cc(-c2cc(C(=O)NCc3ccccc3)on2)nc(NCC2CC2)n1`: the AC40 was 7.9 µM.

Regarding `O=[N+]([O-])c1cc(Cl)cc(/C=N/NC(=S)Nc2ccc(S(=O)(=O)N3CCOCC3)cc2)c1O`, the AC40 is 2.22 µM.

Turning to `CCOC(=O)c1c(C)oc2c1C(=O)c1ccccc1C2=O`, the AC40 is 2.28 µM.

Turning to `O=NN(CCc1ccncc1)c1ccc(OCc2ccccc2)cc1`, the AC40 is 2.98 µM.

`COc1ccc2c(c1)[C@H]1[C@H](CO2)[C@H](c2ccccc2)[C@]2(C)C(=O)Nc3ccc(Cl)cc3C(=O)N12`: the AC40 was 17.2 µM.

With `Cc1ccc(-c2cc(-c3ccc(C)cc3)[n+](-c3ccccc3)c(-c3ccc(C)cc3)c2)cc1`, the AC40 was 4.13 µM.

For `Cc1ccc(S(=O)(=O)N/N=C\c2ccc([N+](=O)[O-])o2)cc1C`, the AC40 is 10.5 µM.

For the compound `Cc1cc(-c2ccccc2)n(-c2cc(N/N=C/c3ccccc3O)ncn2)n1`, the AC40 is > 19.5 µM (inactive).

For the compound `CCCCC(=O)NC(c1ccc(N(C)C)cc1)c1ccc2cccnc2c1O` (stereo not given), the AC40 is 0.754 µM.

For `O=C1c2ccccc2NC(c2ccc(-c3cccc([N+](=O)[O-])c3)o2)N1O` (stereo not given), the AC40 was 4.74 µM.
